Measurements as given in publication PMC11124341, “4-Hydroxybenzoic Acid-Based Hydrazide–Hydrazones as Potent Growth Inhibition Agents of Laccase-Producing Phytopathogenic Fungi That Are Useful in the Protection of Oilseed Crops” (Molecules, 2024).
Values after ≈ are worked out from the molar mass of the structure shown. Like-named read-outs stand apart in the source and are kept apart here.

Columns and labels:
Balb/3T3 cells = test: Antiproliferative assay in vitro (SRB); format: cell-based, mouse; conditions: read-out: Average IC50 ± SD, Balb/3T3 line
Method: (§1) Antiproliferative tests were performed on a normal human breast cell line, MCF-10A, and a mouse embryonic fibroblast: Balb/3T3. Both cell lines were obtained from the American Type Culture Collection (Rockville, MD, USA). The cell lines were maintained in the Institute of Immunology and Experimental Therapy, Wroclaw, Poland. MCF-10A cells were cultured in the F-12 nutrient mixture (Gibco, Scotland, UK), supplemented with 5% horse serum (Gibco, Scotland, UK), […] (Vibrio cholerae Pacini), 10 μg/mL of hydrocortisone and 20 ng/mL of human epidermal growth factor (all from Sigma-Aldrich, Chemie GmbH, Steinheim, Germany). Balb/3T3 cells were cultured in Dulbecco medium (Gibco, Darmstadt, Germany) supplemented with 10% fetal bovine serum (Thermo Fisher Scientific, Waltham, MA, USA) and 2 mM l-glutamine (Sigma-Aldrich, St. Louis, MO, USA). All culture media contained antibiotics: 100 U/mL penicillin (Sigma-Aldrich, St. Louis, MO, USA) and 100 µg/mL streptomycin (Polfa-Tarchomin, Warsaw, Poland). Both cell lines were cultured during the entire experiment in a humid atmosphere at 37 °C and 5% CO2. Amistar 250 SC (fungicide) with active compound azoxystrobin was provided by the Institute of Soil Science and Plant Cultivation, National Research Institute in Pulawy, Department of Weed Science and Tillage Systems in Wroclaw, Poland […].
(§2) Twenty-four hours prior to the applications of the tested compounds, MCF-10A and Balb/3T3 cells were plated in 96-well plates at a density of 10^4 cells per well and cultured at 37 °C in a humid atmosphere saturated with 5% CO2 for 24 h. Stock solutions of the compounds were prepared ex tempore for each test by dissolving in DMSO. The cells were also exposed to the reference drugs: cis-platin (Accord, London, UK) (10–0.01 µg/mL) and DMSO (Sigma-Aldrich) (at the concentrations corresponding to those in the tested agent dilutions). The solutions were then diluted in culture medium RPMI 1640 + Opti-MEM (1:1) (both from Gibco, Scotland, UK), supplemented with 2 mM l-glutamine, 5% fetal bovine serum (all from Sigma-Aldrich Chemie GmbH, Steinheim, Germany). An assay was performed after 72 h of exposure to the tested compounds 13, 17, 18, 19, 25, 27, 30, 4-hba, 4-hbah, and 3,4,5-hba (0.5, 5.0, 50, and to 500 µM) and azoxystrobin fungicide (0.05, 0.5, 5.0 and 50 µM). The antiproliferative effect in vitro was determined by the SRB method (sulforhodamine B colorimetric assay). The optical densities of the samples were measured on the Synergy H4 photometer (BioTek Instruments, Winooski, VT, USA) at 540 nm. The results were calculated as 50% inhibitory concentration (IC50), namely the dose of the tested compound inhibiting proliferation of the tested cells by 50% as compared to the untreated control cells, in the Prolab-3 system based on Cheburator 0.4 software using the two-point method. Each test was repeated 3–5 times.
(§3) Cytotoxicity was performed on two normal cell lines: MCF -10A and Balb/3T3, using as controls cis-platin in the concentrations of 0.03 32, 0.3 32, 3.32 and 33.2 µM and azoxystrobin fungicide in the […]
(§4) were tested in the concentrations of 0.5, 5.0, 50, and 500 µM. The relation of compound concentration […]
(§5) Further, a comparison of the influence of each tested concentration in the group of tested compounds on cell lines was illustrated in Figure S130 a (MCF-10A) and b (Balb/T3T).
(§6) Table S4. Cytotoxicity results for compounds 13, 17, 18, 19, 25, 27, and 30 investigated on normal mammalian lines: MCF -10A and B alb/3T3 using Azoxystrobin (fungicide) and cis-platin as reference compounds.
(§7) Cytotoxicity profile presented as proliferation inhibition, % (y -axis) in the function of compound concentration, […]
(§8) Structure MCF-10A Balb/3T3
(§9) Proliferation inhibition [%] […]

MCF-10A cells = test: Antiproliferative assay in vitro (SRB); format: cell-based, human; conditions: read-out: Average IC50 ± SD, MCF-10A line
Method: as §1, §2, §3, §4, §5, §6, §7, §8, §9

S. sclerotiorum = conditions: cited from earlier work
[1] = system: acetylcholinesterase (AChE); set-up: method as in PMID 33668452; conditions: cited from earlier work
B. cinerea [2] = conditions: cited from earlier work
hepatitis C virus (HCV) = system: hepatitis C virus (HCV); set-up: method as in PMID 26695731; conditions: read-out: EC50 against HCV; cited from earlier work
Mahlavu line = system: Mahlavu line; set-up: method as in PMID 26695731; conditions: cited from earlier work
MPO (myeloperoxidase) = target: MPO (myeloperoxidase); set-up: method as in PMID 32278712; conditions: cited from earlier work
[3] = system: Cerrena unicolor strain no. 139; test: In vitro antifungal activity, mycelial growth inhibition on PDA medium; format: cell-based; conditions: Cerrena unicolor, NO.139; screening at basal 50 µg/mL, PDA medium, mean ± SD of three determinations; read-out: fungal growth inhibition, C. unicolor
Method: (§10) The cultures of Botrytis cinerea strain FBc05 and Sclerotinia sclerotiorum strain FSc10 were obtained from the collection of the Division of Plant Pathology and Mycology at the Department of Plant Protection of Wroclaw University of Environmental and Life Sciences (Poland). Cerrena unicolor (Bull.ex.Fr.) Murr, strain no. 139, originated from the culture collection of the Department of Biochemistry, University of Lublin (Poland). The stock cultures were maintained on potato dextrose agar at +4 °C and periodically transferred to a fresh medium.
(§11) Prior to the fungicidal activity assay of hydrazide–hydrazones 1–35, we considered ethanol and DMSO as potential dissolution media for tested compounds. […] Furthermore, a very important aspect of biological testing is the careful selection of organic solvents. These are typically used, e.g., methanol, ethanol, acetone, and DMSO, and may be highly toxic for microorganisms in even very low concentrations, such as 1% (v/v). Ethanol and DMSO with a final concentration between 0.1 and 1.0% (v/v) in a PDA medium were used and applied to evaluate the inhibition growth of B. cinerea, S. sclerotiorum, and C. unicolor (see Supplementary Materials). The following procedure was applied to the microorganism testing. The assays of fungi inhibition growth were performed at a basal concentration of 50 µg/mL for all compounds, and detailed experiments were extended for testing between 0 and 50 µg/mL (0, 6.25, 12.5, 25.0, and 50.0 µg/mL) for selected compounds. The tests were carried out on Petri dishes (diameter 60 mm) with PDA medium containing appropriate compound, co-solvent control, and hydrazide–hydrazone dissolved in co-solvent assay. A piece of mycelium with a 5 mm edge taken from the outer edge of the growing fungi on the PDA plate with co-solvent was transferred to a central part of the PDA plate with the examined compound. The plates thus inoculated were incubated at 22 °C in the dark for a time when the control plate containing only the co-solvent was covered entirely with the tested microorganism. For B. cinerea and S. sclerotiorum, the test took 3 days, and for C. unicolor, it took 7 days. Each assay was performed at least in triplicate. […] Model parameters c and e were estimated using the nonlinear least-squares method. Parameters d and b (with two exceptions) were fixed and assumed to be equal. Based on estimated parameters, the values of IC50 were determined. […] The IC50 values were calculated only in cases when the model predicted a decrease in growth rate by more than 50%.
(§12) In vitro antifungal activity
(§13) Prior to the fungicidal activity assay of hydrazide-hydrazones 1–35, we considered ethanol (EtOH) and DMSO as potential dissolution media for tested compounds.
(§14) EtOH and DMSO with a final concentration between 0.1–1.0% (v/v) in a PDA medium were applied to evaluate the inhibition growth of B. cinerea, S. sclerotiorum, and C. unicolor (see Table S3). The following procedure was applied to the microorganism testing with the hydrazide-hydrazones. The assays of fungi inhibition growth were performed at a basal concentration of 50 µg/mL for all compounds, and detailed experiments were extended for testing selected molecules 18, 19, 27, […]
(§15) Table S2. In vitro antifungal activity for DMSO and ethanol co-solvents.

[4] = system: Sclerotinia sclerotiorum strain FSc10; test: as above; format: cell-based; conditions: screening at basal 50 µg/mL, PDA medium, mean ± SD of three determinations
Method: as §10, §11, §12, §13, §14, §15

[5] = system: Botrytis cinerea strain FBc05; test: as above; format: cell-based; conditions: Botrytis cinerea, FBC05; screening at basal 50 µg/mL, PDA medium, mean ± SD of three determinations; read-out: fungal growth inhibition, B. cinerea
Method: as §10, §11, §12, §13, §14, §15

Candida = system: Candida; set-up: method as in PMID 23142671; conditions: cited from earlier work
B. cinerea [6] = system: B. cinerea; set-up: method as in PMID 24582134; conditions: cited from earlier work
[7] = system: Alternaria alternata (Fr.) Keissl; set-up: method as in PMID 24582134; conditions: cited from earlier work
Rhizopus oryzae = system: Rhizopus oryzae; set-up: method as in PMID 24582134; conditions: cited from earlier work
[8] = system: Fusarium oxysporum Schltdl.; set-up: method as in PMID 24582134; conditions: cited from earlier work

With `O=C(O)c1cc(O)c(O)c(O)c1` [3,4,5-hba, gallic acid, reference compound] the IC50 (Balb/3T3 cells; Mus musculus, BALB/3T3, 72 h) was 163 ± 1.95 µM and the IC50 (MCF-10A cells; Homo sapiens, MCF-10A, 72 h) was 174 ± 14.3 µM.

In the case of `O=C(NN=Cc1cn(-c2ccccc2Cl)nn1)c1ccccc1` [((1-(2-chlorophenyl)-1H-1,2,3-triazol-4-yl)methylene)benzohydrazide], the “activity against S. sclerotiorum” value (S. sclerotiorum; 25 µg/mL) is listed as “inactive”.

In the case of `COc1ccc(/C=N/NC(=O)c2cn(C)c3ccccc3c2=O)cc1OC` [(E)-N′-(3,4-dimethoxybenzylidene)-1-methyl-4-oxo-1,4-dihydroquinoline-3-carbohydrazide], the “S. sclerotiorum growth inhibition” value (S. sclerotiorum) is given as “more than 80%”.

In the case of `Cn1cc(C(=O)N/N=C/c2cc3ccccc3[nH]2)c(=O)c2ccccc21` [(E)-N′-((1H-indol-2-yl)methylene)-1-methyl-4-oxo-1,4-dihydroquinoline-3-carbohydrazide], the “S. sclerotiorum growth inhibition” value (S. sclerotiorum) is listed as “more than 80%”.

Work on `CO/C=C(/C(=O)OC)c1ccccc1Oc1cc(Oc2ccccc2C#N)ncn1` [Azoxystrobin, reference compound] yielded an IC50 (Balb/3T3 cells; 72 h exposure, SRB method) of 0.1 ± 0.03 µM.

For `N.N.[Cl][Pt][Cl]` [Cis-platin, reference compound], the IC50 (Balb/3T3 cells; 72 h exposure, SRB method) was 9.8 ± 1.93 µM and the IC50 (MCF-10A cells; 72 h exposure, SRB method) was 9.27 ± 1.63 µM.

For `O=C(N/N=C/c1ccccc1O)c1ccc(C(F)(F)F)cc1` [IX], the BuChE/AChE selectivity [1] is listed as 18.6.

In the case of `CC1N[C@H](C(=O)NN=Cc2ccc(Cl)c(Cl)c2)Cc2c1[nH]c1ccccc21` (stereo partly drawn) [N′-(3,4-dichloro-benzylidene)-(3S)-1-methyl-2,3,4,9-tetrahydro-1H-pyrido[3,4-b]indole-3-carbohydrazide], the “growth inhibition of S. sclerotiorum” value (S. sclerotiorum) is listed as “more than 80%” and the “growth inhibition of B. cinerea” value (B. cinerea [2]) is listed as “more than 80%”.

For `CC1N[C@H](C(=O)NN=Cc2ccc(C(C)(C)C)cc2)Cc2c1[nH]c1ccccc21` (stereo partly drawn) [N′-(4-tert-butyl-benzylidene)-(3S)-1-methyl-2,3,4,9-tetra-hydro-1H-pyrido [3,4-b]indole-3-carbohydrazide], the “growth inhibition of S. sclerotiorum” value (S. sclerotiorum) is given as “more than 80%” and the “growth inhibition of B. cinerea” value (B. cinerea [2]) is given as “more than 80%”.

In the case of `Cc1ccc(C(=O)ON=C2C=CC(=NNC(=O)c3ccccc3)C=C2)cc1` [N′-(4-{[(4-methylbenzoyl)oxy]imino}cyclohexa-2,5-dien-1-ylidene)benzohydrazide], the “restriction of mycelium growth, B. cinerea” value (B. cinerea [2]) is given as 35%.

In the case of `O=C(NN=Cc1ccccn1)c1cc(-c2ccc(F)cc2F)ccc1O` [XI], the EC50 (hepatitis C virus (HCV)) is listed as 3.9 µM and the EC50 (Mahlavu line) is listed as 4.74 µM.

For `O=C(N/N=C/c1cc(O)ccc1O)c1ccncc1` [X], the IC50 (MPO (myeloperoxidase)) is given as 4.8 µM.

For `O=C(N/N=C/c1ccc(O)cc1O)c1ccccc1` [compound 22], the melting point was 255 to 256 °C (dec.), the inhibition of growth at 50 µg/mL [3] was 75.4 ± 6.2% and the “fungal growth inhibition, S. sclerotiorum” value [4] was “n.o”. It also gave an inhibition of growth at 50 µg/mL [5] of 32 ± 2.9%.

In the case of `O=C(N/N=C/c1cc(O)c(O)cc1O)c1ccc(O)cc1` [compound 23], the melting point is reported as 253 °C (dec.), the inhibition of growth at 50 µg/mL [3] is reported as 5.8 ± 2.7% and the inhibition of growth at 50 µg/mL ([4]; Sclerotinia sclerotiorum, FSC10, read-out: fungal growth inhibition, S. sclerotiorum) is reported as 2.7 ± 0.4%. It also gave an inhibition of growth at 50 µg/mL [5] of 6.8 ± 2.5%.

In the case of `COc1cc(/C=N/NC(=O)c2ccc(O)cc2)c(O)c(CO)c1` [compound 26, 4-Hydroxy-N′-[(E)-(2-hydroxy-3-hydroxymethyl-5-methoxyphenyl)methylidene]benzohydrazide], the melting point is reported as 219 to 220 °C, the inhibition of growth at 50 µg/mL [3] is reported as 54.6 ± 3.1% and the “fungal growth inhibition, S. sclerotiorum” value [4] is reported as “n.o”. The inhibition of growth at 50 µg/mL [5] was 3.2 ± 0.5%.

For `COc1ccc2c3c1O[C@H]1C[C@@H](O)C=C[C@@]31CCN(C)C2` [galantamine, reference compound], the BuChE/AChE selectivity [1] is listed as 1.8.

In the case of `CC(=O)N1CCN(c2ccc(OCC3COC(Cn4ccnc4)(c4ccc(Cl)cc4Cl)O3)cc2)CC1` (centres unmarked) [ketoconazole, reference compound], the “MIC, anticandidal activity” value (Candida) is listed as 1 to 31 µg/mL.

For `Cc1ccc(C(C)C)c(O)c1` [thymol], the “MIC (minimum inhibitory concentration), B. cinerea” value (B. cinerea [6]) is given as 300 µg/mL (≈ 2000 µM), the “MIC (minimum inhibitory concentration), Alternaria alternata” value [7] is given as 400 µg/mL (≈ 2660 µM) and the “MIC (minimum inhibitory concentration), Rhizopus oryzae” value (Rhizopus oryzae) is given as 450 µg/mL (≈ 3000 µM). The “MIC (minimum inhibitory concentration), Fusarium oxysporum” value [8] was 300 µg/mL (≈ 2000 µM).
